Measurements as given in patent publication US9908890B2, “Selective inhibitors of constitutive androstane receptor” (ST. JUDE CHILDREN'S RESEARCH HOSPITAL, priority 2014, dated 2018).
“And” between values parts separate entries of the source, which are not always exact repeats. Equal entries are not always repeated. Where two headings read alike, the source gives them in different places.

Molecular target: T1, GST-hCAR-LBD (Homo sapiens, UniProt Q14994)
T1 construct: purchased Life Technologies (Carlsbad, Calif.) or Invitrogen (Carlsbad, Calif.)
T1 sequence (Q14994 109-352 limits assumed): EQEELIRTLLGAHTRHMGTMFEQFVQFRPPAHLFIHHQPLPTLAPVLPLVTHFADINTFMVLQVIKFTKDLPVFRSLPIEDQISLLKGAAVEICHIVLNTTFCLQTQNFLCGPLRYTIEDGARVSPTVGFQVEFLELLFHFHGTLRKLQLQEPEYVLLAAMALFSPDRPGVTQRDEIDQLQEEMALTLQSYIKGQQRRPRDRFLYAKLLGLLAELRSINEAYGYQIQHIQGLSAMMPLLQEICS
Assay: CoAct binding inverse agonist assay (LanthaScreen TR-FRET, fluorescent PGC-1α coactivator recruitment/repression)
Assay type: biochemical
Settings: for inhibition at 70 µM: read-out: % Inhibition (70 μM); for fold increase of CAR inverse agonistic activity (potency) over lead chemical 1 (CINPA1) / fold increase of IC50 (decrease of activity) relative to lead chemical 1 (CINPA1): relative to chemical 1
Description: The effect of putative CAR ligands on the recruitment or repression of PGC-1α binding to hCAR was evaluated by using a LanthaScreen TR-FRET assay according to the manufacturer's instructions. […] The final DMSO concentration was 0.7% in all assay wells. […] The % Inhibition values were then plotted for individual chemicals. When applicable, the graphic software GraphPad Prism 5.04 (GraphPad Software, La Jolla, Calif., USA) was used to fit the data into a one-site competitive-binding equation to derive IC50 values. […] The assay plates were then briefly spun down and incubated for 1 hour at room temperature (25° C.). […] The final DMSO concentration was 0.7% in all assay wells. […] The % Inhibition values were then plotted for individual chemicals. When applicable, the graphic software GraphPad Prism 5.04 (GraphPad Software, La Jolla, Calif., USA) was used to fit the data into a one-site competitive-binding equation to derive IC50 values.

[1] = 70 μM compound, 42 μM clotrimazole = 100%, DMSO = 0%
[2] = read-out: IC50 (CAR inverse agonistic activity)
[3] = quoted in SAR text in nM, read-out: IC50 (CAR inverse agonistic activity)

Structure (SMILES) | inhibition at 70 µM [1] [%] | IC50 [2] | other results
CCOC(=O)Nc1ccc2c(c1)N(C(=O)CN(CC)CC)c1ccccc1CC2 [1 (CINPA1)] |  |  | IC50 (Table 6, CINPA1 and commercially available analogs, read-out: IC50): 690 nM
Clc1ccccc1C(c1ccccc1)(c1ccccc1)n1ccnc1 [Clotrimazole, reference compound] |  |  | inhibition at 42 µM (42 μM clotrimazole, positive control): 100%
CCOC(=O)Nc1ccc2c(c1)N(C(=O)CN(CC)CC)c1ccccc1CC2 [Compound 1, ethyl (5-(diethylglycyl)-10,11-dihydro-5H-dibenzo[b,f]azepin-3-yl)carbamate] | 116 | 690 nM | IC50 (Table 4, read-out: IC50): 690 nM
CCCC(=O)Nc1ccc2c(c1)N(C(=O)CN(CC)CC)c1ccccc1CC2 [Compound 2, N-(5-(diethylglycyl)-10,11-dihydro-5H-dibenzo[b,f]azepin-3-yl)butyramide] | 106 |  | IC50 [3]: 2320 nM
CCN(CC)CC(=O)N1c2ccccc2CCc2ccc(NC(=O)C(C)(C)C)cc21 [Compound 4, N-(5-(diethylglycyl)-10,11-dihydro-5H-dibenzo[b,f]azepin-3-yl)pivalamide] | 113 | 1030 nM | 
CCNC(=O)Nc1ccc2c(c1)N(C(=O)CN(CC)CC)c1ccccc1CC2 [Compound 5, 1-(5-(diethylglycyl)-10,11-dihydro-5H-dibenzo[b,f]azepin-3-yl)-3-ethylurea] | 94.9 | 14400 nM | 
CCN(CC)CC(=O)N1c2ccccc2CCc2ccc(NC(=O)NC(C)C)cc21 [Compound 6, 1-(5-(diethylglycyl)-10,11-dihydro-5H-dibenzo[b,f]azepin-3-yl)-3-isopropylurea] | 107 | 4930 nM | 
CCN(CC)CC(=O)N1c2ccccc2CCc2ccc(NC(=O)NC(C)(C)C)cc21 [Compound 7, 1-(tert-butyl)-3-(5-(diethylglycyl)-10,11-dihydro-5H-dibenzo[b,f]azepin-3-yl)urea] | 101 | 13000 nM | 
CCCN(CCC)CC(=O)N1c2ccccc2CCc2ccc(NC(=O)OCC)cc21 [Compound 11, ethyl (5-(dipropylglycyl)-10,11-dihydro-5H-dibenzo[b,f]azepin-3-yl)carbamate] | 113 | 210 nM | fold increase of CAR inverse agonistic activity (potency) over lead chemical 1 (CINPA1): 3 fold
CCOC(=O)Nc1ccc2c(c1)N(C(=O)CN(C(C)C)C(C)C)c1ccccc1CC2 [Compound 12, ethyl (5-(diisopropylglycyl)-10,11-dihydro-5H-dibenzo[b,f]azepin-3-yl)carbamate] | 110 |  | IC50 (Table 4, read-out: IC50): 3050 nM; fold increase of IC50 (decrease of activity) relative to lead chemical 1 (CINPA1): more than 4 fold
CCOC(=O)Nc1ccc2c(c1)N(C(=O)CN1CCCC1)c1ccccc1CC2 [Compound 13, ethyl (5-(2-(pyrrolidin-1-yl)acetyl)-10,11-dihydro-5H-dibenzo[b,f]azepin-3-yl)carbamate] | 115 | 1580 nM | IC50 (Table 4, read-out: IC50): 1580 nM; IC50 [3]: 1580 nM; fold increase of IC50 (decrease of activity) relative to lead chemical 1 (CINPA1): more than 2 fold
CCOC(=O)Nc1ccc2c(c1)N(C(=O)CN1C(C)(C)CCCC1(C)C)c1ccccc1CC2 [Compound 14, ethyl (5-(2-(2,2,6,6-tetramethylpiperidin-1-yl)acetyl)-10,11-dihydro-5H-dibenzo[b,f]azepin-3-yl)carbamate] | 90.5 | 4080 nM | fold IC50 relative to chemical 18 (relative to chemical 18): over 6 fold
CCOC(=O)Nc1ccc2c(c1)N(C(=O)CN1C(=O)C=CC1=O)c1ccccc1CC2 [Compound 15, ethyl (5-(2-(2,5-dioxo-2,5-dihydro-1H-pyrrol-1-yl)acetyl)-10,11-dihydro-5H-dibenzo[b,f]azepin-3-yl)carbamate] | 76 | 39800 nM | fold IC50 relative to chemical 13 (relative to chemical 13): 25 fold
CCOC(=O)Nc1ccc2c(c1)N(C(=O)Cn1cccc1)c1ccccc1CC2 [Compound 16, ethyl (5-(2-(1H-pyrrol-1-yl)acetyl)-10,11-dihydro-5H-dibenzo[b,f]azepin-3-yl)carbamate] | 121 | 37 nM | fold increase of CAR inverse agonistic activity (potency) over lead chemical 1 (CINPA1): 19 fold; fold more potent than chemical 13 (relative to chemical 13): 43 fold
CCOC(=O)Nc1ccc2c(c1)N(C(=O)Cn1ccnc1)c1ccccc1CC2 [Compound 17, ethyl (5-(2-(1H-imidazol-1-yl)acetyl)-10,11-dihydro-5H-dibenzo[b,f]azepin-3-yl)carbamate] | 101 | 6890 nM | fold IC50 relative to chemical 16 (relative to chemical 16): 186 fold
CCOC(=O)Nc1ccc2c(c1)N(C(=O)CN1CCCCC1)c1ccccc1CC2 [Compound 18, ethyl (5-(2-(piperidin-1-yl)acetyl)-10,11-dihydro-5H-dibenzo[b,f]azepin-3-yl)carbamate] | 119 | 620 nM | 

Structure (SMILES) | inhibition at 70 µM [1] [%] | IC50 [2] | other results
CCOC(=O)Nc1ccc2c(c1)N(C(=O)COC(C)(C)C)c1ccccc1CC2 [Compound 19, ethyl (5-(2-(tert-butoxy)acetyl)-10,11-dihydro-5H-dibenzo[b,f]azepin-3-yl)carbamate] | 120 | 71 nM | fold increase of CAR inverse agonistic activity (potency) over lead chemical 1 (CINPA1): 9.7 fold
CCOC(=O)Nc1ccc2c(c1)N(C(=O)CN1[C@H]3CC[C@@H]1CC3)c1ccccc1CC2 [Compound 20, ethyl (5-(2-((1s,4s)-7-azabicyclo[2.2.1]heptan-7-yl)acetyl)-10,11-dihydro-5H-dibenzo[b,f]azepin-3-yl)carbamate] | 118 |  | 
CCOC(=O)Nc1ccc2c(c1)N(C(=O)CNC(C)(C)CC)c1ccccc1CC2 [Compound 21, ethyl (5-(tert-pentylglycyl)-10,11-dihydro-5H-dibenzo[b,f]azepin-3-yl)carbamate] | 116 | 2060 nM | fold increase of IC50 (decrease of activity) relative to lead chemical 1 (CINPA1): 3 fold
CCOC(=O)Nc1ccc2c(c1)N(C(=O)CCN(CC)CC)c1ccccc1CC2 [Compound 22, ethyl (5-(3-(diethylamino)propanoyl)-10,11-dihydro-5H-dibenzo[b,f]azepin-3-yl)carbamate] | 119 | 2430 nM | fold increase of IC50 (decrease of activity) relative to lead chemical 1 (CINPA1): 3.5 fold
CCOC(=O)Nc1ccc2c(c1)N(C(=O)CCN1CCCC1)c1ccccc1CC2 [Compound 23] |  | 3180 nM | inhibition at 70 µM: 118%
CCNCC(=O)N1c2ccccc2CCc2ccc(NC(=O)OCC)cc21 [Compound 24, ethyl (5-(ethylglycyl)-10,11-dihydro-5H-dibenzo[b,f]azepin-3-yl)carbamate] | 88.4 |  | IC50 (Table 4, read-out: IC50): 24500 nM; fold increase of IC50 (decrease of activity) relative to lead chemical 1 (CINPA1): over 35 fold
CCN(CC)CCC(=O)N1c2ccccc2CCc2ccc(NC(=O)OC(C)C)cc21 [Compound 25, isopropyl (5-(3-(diethylamino)propanoyl)-10,11-dihydro-5H-Dibenzo[b,f]azepin-3-yl)carbamate] |  | 6400 nM | 
CC(C)OC(=O)Nc1ccc2c(c1)N(C(=O)Cn1cccc1)c1ccccc1CC2 [Compound 26, isopropyl (5-(2-(1H-pyrrol-1-yl)acetyl)-10,11-dihydro-5H-dibenzo[b,f]azepin-3-yl)carbamate] |  | 21 nM and 22 nM | fold increase of CAR inverse agonistic activity (potency) over lead chemical 1 (CINPA1): 32.8 fold
CC(C)OC(=O)Nc1ccc2c(c1)N(C(=O)CN1CCCCC1)c1ccccc1CC2 [Compound 27, isopropyl (5-(2-(piperidin-1-yl)acetyl)-10,11-dihydro-5H-dibenzo[b,f]azepin-3-yl)carbamate] |  | 250 nM | 
CCCN(CCC)CC(=O)N1c2ccccc2CCc2ccc(NC(=O)OC(C)C)cc21 [Compound 28, isopropyl (5-(dipropylglycyl)-10,11-dihydro-5H-dibenzo[b,f]azepin-3-yl)carbamate] |  | 120 nM | 
CCOCC(=O)N1c2ccccc2CCc2ccc(NC(=O)OC(C)C)cc21 [Compound 29, isopropyl (5-(2-ethoxyacetyl)-10,11-dihydro-5H-dibenzo[b,f]azepin-3-yl)carbamate] |  | 11400 nM | 
CC(C)OCC(=O)N1c2ccccc2CCc2ccc(NC(=O)OC(C)C)cc21 [Compound 30, isopropyl (5-(2-isopropoxyacetyl)-10,11-dihydro-5H-dibenzo[b,f]azepin-3-yl)carbamate] |  | 60 nM | 
CCC(C)OCC(=O)N1c2ccccc2CCc2ccc(NC(=O)OC(C)C)cc21 (stereo not drawn) [Compound 31, isopropyl (5-(2-(sec-butoxy)acetyl)-10,11-dihydro-5H-dibenzo[b,f]azepin-3-yl)carbamate] |  | 35 nM | 
CC(C)OC(=O)Nc1ccc2c(c1)N(C(=O)COCC(C)(C)C)c1ccccc1CC2 [Compound 32, isopropyl (5-(2-(neopentyloxy)acetyl)-10,11-dihydro-5H-dibenzo[b,f]azepin-3-yl)carbamate] |  | 21 nM | 
CC(C)OC(=O)Nc1ccc2c(c1)N(C(=O)COC1CC1)c1ccccc1CC2 [Compound 33, isopropyl (5-(2-cyclopropoxyacetyl)-10,11-dihydro-5H-dibenzo[b,f]azepin-3-yl)carbamate] |  | 82 nM | 
